What was measured:
ducksalad = test: Test B flood; type: in vivo, Heteranthera limosa; settings: 250 g ai/ha, visual rating on 0 to 100 scale (0 no effect, 100 complete control), 13 to 15 days
Outline: (§1)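 Visual ratings on a 0–100 scale, where 0 means no effect and 100 means complete control, were assigned by comparison with controls 13 to 15 days after treatment. Compounds went into paddy water over 2-leaf plants flooded to 3 cm.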

rice = test: Test B flood; type: in vivo, Oryza sativa; settings: 250 g ai/ha, visual rating on 0 to 100 scale (0 no effect, 100 complete control), 13 to 15 days
Outline: as §1

morningglory [1] = test: Test A postemergence; type: in vivo, Ipomoea spp.
Outline: (§2)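 Injury readout: eye-scored versus untreated controls, 0 to 100. Exposure period: ~10 days, greenhouse. Application: soil-directed spray over sown seed (pre) or spray on seedlings 2–10 cm tall with one or two leaves (post), compound carried in non-phytotoxic solvent including surfactant.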

wheat [2] = test: Test A preemergence; type: in vivo, Triticum aestivum; settings: preemergence
Outline: as §2

foxtail, giant [3] = test: Test A postemergence; type: in vivo, Setaria faberii
Outline: as §2

corn [4] = test: Test A preemergence; type: in vivo, Zea mays; settings: preemergence
Outline: as §2

foxtail, giant [5] = test: Test A preemergence; type: in vivo, Setaria faberii; settings: preemergence
Outline: as §2

wheat [6] = test: Test A postemergence; type: in vivo, Triticum aestivum
Outline: as §2

pigweed [7] = test: Test A preemergence; type: in vivo, Amaranthus retroflexus; settings: preemergence
Outline: as §2

pigweed [8] = test: Test A postemergence; type: in vivo, Amaranthus retroflexus
Outline: as §2

barnyardgrass [9] = test: Test A preemergence; type: in vivo, Echinochloa crus-galli; settings: preemergence
Outline: as §2

crabgrass, large [10] = test: Test A preemergence; type: in vivo, Digitaria sanguinalis; settings: preemergence
Outline: as §2

barnyardgrass [11] = test: Test A postemergence; type: in vivo, Echinochloa crus-galli
Outline: as §2

velvetleaf [12] = test: Test A preemergence; type: in vivo, Abutilon theophrasti; settings: preemergence
Outline: as §2

sedge, umbrella = test: Test B flood; type: in vivo, Cyperus difformis; settings: 250 g ai/ha, visual rating on 0 to 100 scale (0 no effect, 100 complete control), 13 to 15 days
Outline: as §1

crabgrass, large [13] = test: Test A postemergence; type: in vivo, Digitaria sanguinalis
Outline: as §2

morningglory [14] = test: Test A preemergence; type: in vivo, Ipomoea spp.; settings: preemergence
Outline: as §2

barnyardgrass [15] = test: Test B flood; type: in vivo, Echinochloa crus-galli; settings: 250 g ai/ha, visual rating on 0 to 100 scale (0 no effect, 100 complete control), 13 to 15 days
Outline: as §1

corn [16] = test: Test A postemergence; type: in vivo, Zea mays
Outline: as §2

velvetleaf [17] = test: Test A postemergence; type: in vivo, Abutilon theophrasti
Outline: as §2

[18] = Postemergence, 500 g ai/ha, visual rating after approx. 10 days, 0 to 100 scale (0 no effect, 100 complete control)
[19] = postemergence, 125 g ai/ha, about 10 days, visual rating on 0 to 100 scale (0 no effect, 100 complete control)
[20] = 125 g ai/ha, visual injury, 0 to 100 scale, approx. 10 days
[21] = 500 g ai/ha, visual injury after approx. 10 days, 0 to 100 scale (0 no effect, 100 complete control)

| SMILES | Plant response rating, Ducksalad (ducksalad) | Plant response rating, Rice (rice) | Morningglory plant response rating (morningglory [1]; [18]) | Morningglory plant response rating (morningglory [1]; [19]) | Wheat plant response rating (wheat [2]; [20]) | Wheat plant response rating (wheat [2]; [21]) | Foxtail, Giant plant response rating (foxtail, giant [3]; [18]) | Foxtail, Giant plant response rating (foxtail, giant [3]; [19]) | Corn plant response rating (corn [4]; [20]) | Corn plant response rating (corn [4]; [21]) | Foxtail, Giant plant response rating (foxtail, giant [5]; [20]) | Foxtail, Giant plant response rating (foxtail, giant [5]; [21]) | Wheat plant response rating (wheat [6]; [18]) | Wheat plant response rating (wheat [6]; [19]) | Pigweed plant response rating (pigweed [7]; [20]) | Pigweed plant response rating (pigweed [7]; [21]) | Pigweed plant response rating (pigweed [8]; [18]) | Pigweed plant response rating (pigweed [8]; [19]) | Barnyardgrass plant response rating (barnyardgrass [9]; [20]) | Barnyardgrass plant response rating (barnyardgrass [9]; [21]) | other results |
| --- | --- | --- | --- | --- | --- | --- | --- | --- | --- | --- | --- | --- | --- | --- | --- | --- | --- | --- | --- | --- | --- |
| CCc1cc(C(=O)NOC)nn1Cc1ccnc(C(F)(F)F)c1 [Compound 99] | 50 | 0 | 100 | 50 | 0 | 60 | 100 | 60 | 50 | 90 | 90 | 100 | 70 | 20 | 90 | 100 | 100 | 70 | 40 | 100 | Crabgrass, Large plant response rating (crabgrass, large [10]; [20]): 100; Crabgrass, Large plant response rating (crabgrass, large [10]; [21]): 100; Barnyardgrass plant response rating (barnyardgrass [11]; [18]): 90; Barnyardgrass plant response rating (barnyardgrass [11]; [19]): 20; Velvetleaf plant response rating (velvetleaf [12]; [20]): 10; Velvetleaf plant response rating (velvetleaf [12]; [21]): 80; Plant response rating, Sedge, Umbrella (sedge, umbrella): 75; Crabgrass, Large plant response rating (crabgrass, large [13]; [18]): 100; Crabgrass, Large plant response rating (crabgrass, large [13]; [19]): 60; Morningglory plant response rating (morningglory [14]; [20]): 60; Morningglory plant response rating (morningglory [14]; [21]): 100; Plant response rating, Barnyardgrass (barnyardgrass [15]): 0; Corn plant response rating (corn [16]; [18]): 90; Corn plant response rating (corn [16]; [19]): 50; Velvetleaf plant response rating (velvetleaf [17]; [18]): 90; Velvetleaf plant response rating (velvetleaf [17]; [19]): 20 |
| CCc1cc(-c2ccc(F)cc2)nn1Cc1ccnc(C(F)(F)F)c1 [Compound 111] | 0 | 20 | 100 | 90 | 0 | 0 | 100 | 40 | 0 | 0 | 90 | 100 | 30 | 10 | 20 | 100 | 100 | 80 | 10 | 90 | Crabgrass, Large plant response rating (crabgrass, large [10]; [20]): 90; Crabgrass, Large plant response rating (crabgrass, large [10]; [21]): 100; Barnyardgrass plant response rating (barnyardgrass [11]; [18]): 80; Barnyardgrass plant response rating (barnyardgrass [11]; [19]): 20; Velvetleaf plant response rating (velvetleaf [12]; [20]): 10; Velvetleaf plant response rating (velvetleaf [12]; [21]): 30; Plant response rating, Sedge, Umbrella (sedge, umbrella): 90; Crabgrass, Large plant response rating (crabgrass, large [13]; [18]): 100; Crabgrass, Large plant response rating (crabgrass, large [13]; [19]): 30; Morningglory plant response rating (morningglory [14]; [20]): 0; Morningglory plant response rating (morningglory [14]; [21]): 30; Plant response rating, Barnyardgrass (barnyardgrass [15]): 15; Corn plant response rating (corn [16]; [18]): 50; Corn plant response rating (corn [16]; [19]): 10; Velvetleaf plant response rating (velvetleaf [17]; [18]): 90; Velvetleaf plant response rating (velvetleaf [17]; [19]): 40 |
| CCc1cc(-c2ccc(Br)cc2)nn1Cc1ccnc(C(F)(F)F)c1 [Compound 112] | 0 | 20 | 70 | 40 | 0 | 0 | 20 | 10 | 0 | 0 | 70 | 80 | 40 | 10 | 0 | 50 | 90 | 30 | 0 | 10 | Crabgrass, Large plant response rating (crabgrass, large [10]; [20]): 70; Crabgrass, Large plant response rating (crabgrass, large [10]; [21]): 90; Barnyardgrass plant response rating (barnyardgrass [11]; [18]): 20; Barnyardgrass plant response rating (barnyardgrass [11]; [19]): 0; Velvetleaf plant response rating (velvetleaf [12]; [20]): 0; Velvetleaf plant response rating (velvetleaf [12]; [21]): 10; Plant response rating, Sedge, Umbrella (sedge, umbrella): 0; Crabgrass, Large plant response rating (crabgrass, large [13]; [18]): 20; Crabgrass, Large plant response rating (crabgrass, large [13]; [19]): 10; Morningglory plant response rating (morningglory [14]; [20]): 0; Morningglory plant response rating (morningglory [14]; [21]): 0; Plant response rating, Barnyardgrass (barnyardgrass [15]): 20; Corn plant response rating (corn [16]; [18]): 30; Corn plant response rating (corn [16]; [19]): 0; Velvetleaf plant response rating (velvetleaf [17]; [18]): 40; Velvetleaf plant response rating (velvetleaf [17]; [19]): 20 |
| CCc1cc(-c2ccc(C(F)(F)F)cc2)nn1Cc1nc(C(F)(F)F)nn1C [Compound 115] | 0 | 20 | 80 | 30 | 0 | 20 | 80 | 30 | 0 | 20 | 90 | 90 | 40 | 0 | 90 | 100 | 100 | 90 | 20 | 80 | Crabgrass, Large plant response rating (crabgrass, large [10]; [20]): 90; Crabgrass, Large plant response rating (crabgrass, large [10]; [21]): 100; Barnyardgrass plant response rating (barnyardgrass [11]; [18]): 60; Barnyardgrass plant response rating (barnyardgrass [11]; [19]): 30; Velvetleaf plant response rating (velvetleaf [12]; [20]): 20; Velvetleaf plant response rating (velvetleaf [12]; [21]): 20; Plant response rating, Sedge, Umbrella (sedge, umbrella): 80; Crabgrass, Large plant response rating (crabgrass, large [13]; [18]): 90; Crabgrass, Large plant response rating (crabgrass, large [13]; [19]): 50; Morningglory plant response rating (morningglory [14]; [20]): 0; Morningglory plant response rating (morningglory [14]; [21]): 40; Plant response rating, Barnyardgrass (barnyardgrass [15]): 0; Corn plant response rating (corn [16]; [18]): 40; Corn plant response rating (corn [16]; [19]): 20; Velvetleaf plant response rating (velvetleaf [17]; [18]): 100; Velvetleaf plant response rating (velvetleaf [17]; [19]): 60 |
